The test system of one assay is IL-6. Nature of the assay: IL-6 ELISA, HCA2 cells induced to senesce by oncogenic RAS or MKK6 overexpression. The format is cell-based, human. The note with it: 500 nM corticosterone, 100 nM cortisol, 6 days. On the procedure: (FIG. 12A) Senescent X-irradiated with 10 Gy (Sen (XRA)) HCA2 fibroblasts were incubated in medium plus 10% serum containing the indicated concentrations of corticosterone or the highest concentration of DMSO (vehicle control). The cells were given corticosterone or DMSO immediately after irradiation and analyzed 6 days later. The cells were washed and incubated in serum-free medium without corticosterone to generate conditioned media. Conditioned media from pre-senescent (Pre) and control or corticosterone-treated Sen (XRA) cells were analyzed by ELISA for IL-6. (FIG. 12B) Cells were treated, and conditioned media were generated and analyzed as described in (FIG. 12A) except cortisol was used at the indicated concentrations. (FIG. 12C) Conditioned media were collected from presenescent (PRE) or senescent (XRA) cells that were treated with DMSO, corticosterone ([…]), or cortisol (100 nM) as described in (FIG. 12A). The conditioned media were analyzed by antibody arrays. Average signal from PRE and XRA DMSO cells was used as the baseline. Signals higher than baseline are light gray (see +1 on scale to right); signals lower than baseline are dark gray as illustrated by PRE DMSO (see −1 on scale at right). […]
Conditioned media were filtered and stored at −80° C. Cell numbers were determined in every experiment. […] Data were normalized and expressed as pg/ml/cell/24 h.
Background: In an ELISA, binding on a coated surface is turned into a signal by an enzyme label.

Assay [1] deals with T1, glucocorticoid receptor (GR) (Homo sapiens, UniProt P04150).
T1 construct: endogenous in cells; host or cells: HCA2 human fibroblasts
T1 sequence (P04150 1-777): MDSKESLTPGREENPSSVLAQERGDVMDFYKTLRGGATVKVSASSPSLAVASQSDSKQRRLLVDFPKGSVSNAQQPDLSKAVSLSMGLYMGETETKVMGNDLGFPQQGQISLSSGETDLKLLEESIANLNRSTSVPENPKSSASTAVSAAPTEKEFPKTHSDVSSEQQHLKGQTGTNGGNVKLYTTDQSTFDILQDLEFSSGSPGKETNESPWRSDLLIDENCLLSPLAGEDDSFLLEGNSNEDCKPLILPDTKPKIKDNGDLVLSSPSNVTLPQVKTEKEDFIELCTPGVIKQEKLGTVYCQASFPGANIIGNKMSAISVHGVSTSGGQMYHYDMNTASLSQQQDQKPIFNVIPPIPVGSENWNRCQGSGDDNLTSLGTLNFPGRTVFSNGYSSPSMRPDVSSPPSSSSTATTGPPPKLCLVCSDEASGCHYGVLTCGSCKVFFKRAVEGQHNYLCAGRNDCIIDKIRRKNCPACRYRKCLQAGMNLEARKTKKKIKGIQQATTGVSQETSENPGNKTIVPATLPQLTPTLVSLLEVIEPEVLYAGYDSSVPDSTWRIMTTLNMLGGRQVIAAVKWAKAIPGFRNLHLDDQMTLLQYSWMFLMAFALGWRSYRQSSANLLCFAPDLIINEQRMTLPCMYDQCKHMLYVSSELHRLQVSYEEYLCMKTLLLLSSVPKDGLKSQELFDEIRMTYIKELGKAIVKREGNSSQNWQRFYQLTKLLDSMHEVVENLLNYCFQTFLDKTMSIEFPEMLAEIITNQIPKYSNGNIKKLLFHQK
The experiment in a line: Immunostaining for GR localization in HCA2 cells. The note with it: senescent HCA2 cells; 500 nM corticosterone or 100 nM cortisol. In kind it is cell-based. On the procedure:
Cells were cultured in 8-well chamber slides, fixed in 4% formaldehyde (Sigma) for 10 min at 4° C. and permeabilized in PBS-0.5% Triton for 10 min in 4° C.

Assay [2] deals with T2, mineralocorticoid receptor (Homo sapiens, UniProt P08235).
T2 sequence (P08235 1-984): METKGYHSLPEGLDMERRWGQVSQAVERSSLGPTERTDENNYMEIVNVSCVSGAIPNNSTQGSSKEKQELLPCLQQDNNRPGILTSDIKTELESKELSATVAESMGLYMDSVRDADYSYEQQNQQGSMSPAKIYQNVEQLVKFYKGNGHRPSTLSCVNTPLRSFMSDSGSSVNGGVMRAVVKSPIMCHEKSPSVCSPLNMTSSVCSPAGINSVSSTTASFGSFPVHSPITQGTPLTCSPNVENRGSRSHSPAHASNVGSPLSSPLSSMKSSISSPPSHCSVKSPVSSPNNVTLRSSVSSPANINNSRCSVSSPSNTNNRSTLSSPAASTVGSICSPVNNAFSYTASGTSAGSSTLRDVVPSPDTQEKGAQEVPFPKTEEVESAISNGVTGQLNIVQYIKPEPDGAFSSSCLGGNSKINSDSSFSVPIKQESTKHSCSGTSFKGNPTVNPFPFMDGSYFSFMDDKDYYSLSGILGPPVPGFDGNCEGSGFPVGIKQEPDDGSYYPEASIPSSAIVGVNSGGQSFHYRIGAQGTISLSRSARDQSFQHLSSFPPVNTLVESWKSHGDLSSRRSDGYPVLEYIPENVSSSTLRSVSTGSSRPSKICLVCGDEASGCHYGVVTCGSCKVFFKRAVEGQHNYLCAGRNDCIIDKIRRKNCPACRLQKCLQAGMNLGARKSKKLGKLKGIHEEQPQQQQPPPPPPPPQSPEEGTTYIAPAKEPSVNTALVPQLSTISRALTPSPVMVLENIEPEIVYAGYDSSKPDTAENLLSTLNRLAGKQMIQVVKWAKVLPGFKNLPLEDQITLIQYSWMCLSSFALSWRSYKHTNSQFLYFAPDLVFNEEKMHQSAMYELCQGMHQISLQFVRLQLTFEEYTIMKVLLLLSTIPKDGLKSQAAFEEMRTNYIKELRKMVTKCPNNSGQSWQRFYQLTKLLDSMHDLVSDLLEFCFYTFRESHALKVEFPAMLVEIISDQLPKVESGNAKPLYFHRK
The experiment in a line: Immunostaining for mineralocorticoid receptor localization in HCA2 cells. The settings on record: 500 nM corticosterone or 100 nM cortisol, 1 or 7 days.

`C[C@]12CCC(=O)C=C1CC[C@@H]1[C@@H]2[C@@H](O)C[C@@]2(C)[C@H]1CC[C@]2(O)C(=O)CO` [cortisol]: the “suppression of senescence-associated IL-6 secretion” value in the assay with IL-6 is reported as “effective”. Besides, in assay [1], the GR localization entry was “translocated into the nucleus”. Also, in assay [2], the mineralocorticoid receptor localization result was “remained cytoplasmic”.
Taken in the same sequence, the figures for `C[C@]12C[C@H](O)[C@H]3[C@@H](CCC4=CC(=O)CC[C@@]43C)[C@@H]1CC[C@@H]2C(=O)CO` [corticosterone] were “effective”, “translocated into the nucleus” and “remained cytoplasmic”.

The record behind these values is patent US9884065B2, “Inhibiting activity of senescent cells using a glucocorticoid” (Buck Institute for Research on Aging, priority 2011, dated 2018).
